Experimental data: patent US20090281184A1, “PHARMACEUTICAL FOR PREVENTION AND TREATMENT OF OPHTHALMIC DISEASE INDUCED BY IN-CREASE IN VASOPERMEABILITY” (SAPPORO MEDICAL UNIVERSITY, priority 2005, published 2009)

B1: recombinant protein of GDNF: recombinant glial cell line-derived neurotrophic factor (protein, UniProt P39905 78-211, looked up)
Glial cell line-derived …: SPDKQMAVLPRRERNRQAAAANPENSRGKGRRGQRGKNRGCVLTAIHLNVTDLGLGYETKEELIFRYCSGSCDAAETTYDKILKNLSRNRRLVSDKVGQACCRPIAFDDDLSFLDDNLVYHILRKHSAKRCGCI

How the values were obtained:
[1] = system: diabetic model mice; assay: Streptozotocin-induced diabetic model mice, FITC dextran in the eyes as index of vascular permeability; format: in vivo, mouse; details: atRA 1 mg/kg intraperitoneally
Procedure: Male 5 to 6 week-old C57/BL6 mice were administered with streptozotocin and diabetes was chemically induce in these model mice. To these diabetic model mice, retinoids were administered to evaluate clinical effectiveness. For reference, mice without the diabetic induction were used as control.
Experimental groups: 1. Control (group of non-induction of diabetes) 2. Diabetic group (non-treated group) 3. Diabetic group (atRA-treated group) 4. Diabetic group (Am580-treated group) 5. Diabetic group (Am80-treated group)
The onset of diabetes was confirmed by periodical measurement of glucose in urine, and after all the mice became strongly positive, by measurement of blood glucose. The mice of 4 to 6 week-pathological period with diabetes were used. […] Mice were divided into 4 groups as mentioned above for the treatment. The treatment were performed by administrating atRA (1 mg/kg), Am580 (3.75 mg/kg), and Am80 (4.5 mg/kg) intraperitoneally every other day for 4 days. […] As the index of the permeability, the FITC in the eyes was measured, and the value was standardized with the FITC amount contained in cardiac blood to minimize a potential difference between each amount of dose.
As biological parameters, blood sugar (BS) and urine sugar (US) were evaluated.

[2] = system: vascular endothelial cells; assay: Direct treatment of vascular endothelial cells in the absence of astrocyte; format: cell-based; details: FIG. 8
From the text: It is known that the vascular endothelial cells also have retinoid receptors, and accordingly, there remains a possibility that atRA contained in the cell culture medium effected directly on the vascular endothelial cells during the co-culture. However, when a recombinant protein of GDNF was directly effected on the vascular endothelial cells in the absence of astrocyte, the increase in TER and the decrease in the permeability were induced (*p<0.05), whilst these changes were not observed when the cells were treated with atRA (FIG. 8).

[3] = system: GDNF; assay: GDNF expression in primary cultured human astrocyte; format: cell-based; details: for GDNP expression / suppression of the vascular permeability (expression of GDNF divided by expression of VEGF): human astrocyte; for GDNP expression: FIG. 6; for suppression of the vascular permeability (expression of GDNF divided by expression of VEGF): non-treated group as inner control; for expression of GDNF mRNA: preliminary experiment, see FIG. 6
Procedure: (§1) In Examples 1 and 2, U373MG cells, a cell line having the characteristic as astrocyte, was used for convenience of the experiment. […] Therefore, studies were made to evaluate whether or not the enhancement of the expression of GDNF by the retinoid can be observed also in the system using human astrocyte. The astrocyte used in the experiment was a primary cultured cell isolated from the human brain, and was purchased from Cambrex Corporation, USA. This means provides an advantage that observation is achievable under environments closer to those in vivo.
Whilst, the expression of VRGF that is a strong vascular hyperpermeability factor was suppressed in the treated groups. The level of suppression of the vascular permeability in the treated groups is represented by a relative amount of the two factors that define permeability, specifically, a value obtained by dividing a value of the expression of GDNF that is the permeability-suppressing factor by a value of the expression of VEGF that is a hyperpermeability factor. In this case, a value of the expression of each of non-treated groups is used as an inner control, and an amount of the expression of the treated groups is calculated from the concentration on the gel and the area. […] The experimental groups in FIG. 6 are as follows, and the upper figure indicates the photographs of the gel, the lower figure indicates visualized differences of relative amounts obtained by the quantification thereof.

[4] = system: VEGF; assay: VEGF expression in primary cultured human astrocyte; format: cell-based; details: treated groups, FIG. 6
Procedure: as §1
Whilst, the expression of VRGF that is a strong vascular hyperpermeability factor was suppressed in the treated groups. […] In this case, a value of the expression of each of non-treated groups is used as an inner control, and an amount of the expression of the treated groups is calculated from the concentration on the gel and the area. […] The experimental groups in FIG. 6 are as follows, and the upper figure indicates the photographs of the gel, the lower figure indicates visualized differences of relative amounts obtained by the quantification thereof.

[5] = system: GDNF; assay: GDNF expression by atRA treatment in human glioma cells (quantitative RT-PCR, Southern blot); format: cell-based; details: U373MG cells
Procedure: U373MG cells were cultured in a relatively dense state, and were treated with 10 nM or 100 nM of all-trans retinoic acid (atRA). mRNA was extracted from the cells and subjected to quantitative RT-PCR, and then changes in the gene expression were analyzed and quantified by the Southern blot method. Reverse transcription was performed by using a kit manufactured by Invitrogen. The reagents were prepared according to the manufacturer's instructions, and reacted at 42° C. for 30 minutes. The product was used for PCR after denaturation of reverse transcriptase at 96° C. for 5 minutes. For the PCR reaction, each reagent manufactured by TaKaRa was prepared by mixing according to the manufacturer's instructions, and the following reactions were performed:
1) 94° C., 30 seconds 2) 94° C., 15 seconds 3) 52° C., 15 seconds 4) 72° C., 30 seconds 5) repeat of the reactions from 2) to 4) for 32 times 6) 72° C., 7 minutes
The final reaction product was used for the Southern blot test.

[6] = system: GDNF; assay: Suppression of GDNF expression by AGE-2 in human astrocyte (RT-PCR, ELISA); format: cell-based; details: p<0.001; for inhibition of the effect of AGE-2 to suppress the expression of GDNF, protein level: combination with AGE-2, ELISA of cell culture medium; for inhibition of the effect of AGE-2 to suppress the expression of GDNF, mRNA level: combination with AGE-2, RT-PCR
Procedure: Human astrocyte was treated with AGE-2 alone, or combinations of AGE-2 with atRA or Am580, and alterations in the expression of GDNF was evaluated in the same manner as FIG. 6.

[7] = system: vascular endothelial cells obtained from the bovine brain; assay: Barrier function of vascular endothelial cells co-cultured with atRA-treated U373MG cells (transwell double chamber); format: cell-based; details: p<0.05
Procedure: In order to evaluate whether or not the alteration induces physiological reactions, co-cultivation with vascular endothelial was performed. […] As can be understood from FIG. 3, the […] cells (astrocytes) were grown as effector cells in the outer chamber, and treated with atRA and cultured for additional 24 hours. In the inner chamber separately prepared, vascular endothelial cells obtained from the bovine brain were cultured to prepare beforehand for forming a dense single layer cell-sheet.
The outer chamber with U373MG cells and the inner chamber with the vascular endothelial cells were jointed to start the co-culture for evaluation of the barrier function that is a tight-function of the vascular endothelial cells. […] In this experiment, as functional alterations of the vascular endothelial cells by the influence of the astrocyte, the difference in electrical resistance inside and outside of the vascular endothelial cells, and the mobility to the outer chamber of the labeled substance (^14C-labeled) added in the inner chamber were evaluated as indexes as the vascular permeability. The activity of the transferred radioactive substance is indicated as dpm (disintegrations per minutes).

[8] = system: MDCK (Madin Darby Canine Kidney) cell; assay: Barrier function evaluation with MDCK cells, same parameters as Example 2; format: cell-based, dog
From the text: The vascular endothelial cell used in Example 2 is the primary culture strain obtained from the bovine brain, which has an advantage of capable of reproducing in vitro conditions more similar to those in a living body. However, unlike those called as cell lines, the strain of the primary cultured cell has limited number of division and a slow division rate, and therefore has an aspect of unsuitability for an experimental system that requires repeated examination. Accordingly, MDCK (Madin Darby Canine Kidney) cell as dog-derived kidney tubule cell (easily available commercially) was used, which cell is optimum for the evaluation of the barrier function and has been experienced of being already used in variety of experimental systems. The effect of synthetic retinoids was evaluated with the same parameter as those in Example 2. The experimental groups in FIG. 5 are as follows:
1. Non-treated group 2. atRA (RARα agonist) 3. Am80 (RARα agonist) 4. Am580 (RARα agonist)
In FIG. 5, the non-treated group (control) is defined as “1”, and relative differences thereto are shown as graphs.

[9] = 14C-labeled, co-culture with atRA-treated U373MG cells
[10] = relative to non-treated group, p<0.05

Molecule	urine sugar (US) ([1]; diabetic mice, compared to the non-treated group)	TER [2]	permeability [2]	GDNP expression [3]	suppression of the vascular permeability (expression of GDNF divided by expression of VEGF) [3]	expression of GDNF mRNA [3]	expression of VRGF [4]	time at which the increase in GDNF expression reached a plateau level [5]	GDNF mRNA level expression ([5]; 10 nM or 100 nM, after 3 hours and 24 hours)	inhibition of the effect of AGE-2 to suppress the expression of GDNF, protein level [6]	inhibition of the effect of AGE-2 to suppress the expression of GDNF, mRNA level [6]	permeability of inulin (5 kDa) [7, 9]	permeability of mannitol (182 Da) [7, 9]	TER (transepithelial electrical resistance), barrier function of the vascular endothelial cells ([7]; co-culture with U373MG cells treated with atRA)	effectiveness on vascular hyperpermeability (amount of FITC in the eyes) ([1]; middle stage diabetic group, Am580 3.75 mg/kg)	TER ([8]; relative to non-treated group defined as 1, p<0.05)	intercellular permeability (inulin) [8, 10]	intercellular permeability (mannitol) [8, 10]
CC1=C(/C=C/C(C)=C/C=C/C(C)=C/C(=O)O)C(C)(C)CCC1 [atRA, all-trans retinoic acid]	Significantly lower	not observed	not observed	significantly increases	about three-fold	induced the expression of GDNF mRNA in a dose-dependent and time-dependent manner	suppressed	about 3 hours	increased in relation to the elevated concentration	strongly inhibited	strongly inhibited	significantly suppressed	significantly suppressed	enhanced	–	–	–	–
CC1(C)CCC(C)(C)c2cc(C(=O)Nc3ccc(C(=O)O)cc3)ccc21 [Am580, 4-[(5,6,7,8-tetrahydro-5,5,8,8-tetramethyl-2-naphthalenyl)carboxamide]benzoic acid]	–	–	–	significantly increases	about three-fold	induced the expression of GDNF mRNA in a dose-dependent and time-dependent manner	suppressed	–	–	strongly inhibited	strongly inhibited	–	–	–	higher effectiveness than atRA	more effective than atRA, and much effective than Am80	most effectively suppressed	most effectively suppressed
B1	–	increase	decrease	–	–	–	–	–	–	–	–	–	–	–	–	–	–	–
